Read-outs that look alike come from different tables or passages of the source. Blank lines part the entries; values can stand above or below the compound they belong to.
Key:
HeLa cells = test: Action in inhibiting the lowering of MTT reduction capacity by Aβ1-40; format: cell-based
Experimental: The HeLa cells employed were purchased from the Dainippon Pharmaceutical Co.
The HeLa cells were seeded by suspension in MEM (Minimum essential medium; produced by the Sigma Chemical Co.) containing 10% inactivated FBS (foetal bovine serum) such that there were 1,000 per well in a 96-well microplate, and then culturing was carried out overnight in an incubator at 37° C. in the presence of 5% CO2.
The test compound was dissolved in dimethyl sulphoxide (DMSO) and diluted with the MEM medium so that the final concentration of DMSO was no more than 0.1 wt %, and added to the cells seeded the previous day. […] Overnight culturing was carried out using an incubator at 37° C. in the presence of 5% CO2, with 100 μL/well of MEM medium containing 5% deactivated FBS.
Now, prior to use, the Aβ1-40 had been dissolved in buffer and left overnight so that the amyloid coagulated.
In order to determine the percentage inhibition of the test compound, cells alone, cells where Aβ1-40 had been added, and cells where only the test compound had been added, were also incubated overnight under the same conditions.
The following day, there was added 10 μL/well of MTT [3-(4,5-dimethylthiazol-2-yl)-2,5-diphenyltetrazolium bromide: produced by Wako Pure Chemical Industries] prepared at a concentration of 5 mg/mL with phosphate buffered saline (PBS), and incubation carried out for 2 hours at 37° C. in the presence of 5% CO2. The medium was then eliminated and the formazan dye produced measured […] (A570 nm-A650 nm) using a Microplate Reader (produced by the Molecular Devices Co.), by dissolving with the addition of 100 μL per well of isopropanol. In this way, the change in the MTT reduction capacity of the HeLa cells was measured.
The percentage inhibition (%) by the test compound was determined from the following formula. inhibition (%) [[…]/(a−c)]×100 where • a=MTT reduction capacity when untreated • b=MTT reduction capacity when Aβ1-40 and the test compound are added • c=MTT reduction capacity when only Aβ1-40 is added

[1] = test system: acute sections from the hippocampus; test: Suppression of Aβ1-42-induced long-term potentiation impairment (fEPSP slope) in acute hippocampal sections; format: cell-based, Wistar rats; conditions: for effect of compound on its own on LTP (result in words): compound alone; for impairment of the LTP due to Aβ1-42 (result in words): pretreating 5 hours with Aβ1-42 together with the compound
Experimental: The method for testing the suppression of the impairment of long-term potentiation was based on that described in J. Neurosci. Vol. 20, 2003-10 (2000). That is to say, acute^i sections of thickness 400 μm were prepared from the hippocampus of the brains of 3-4 week old male Wistar rats. These acute sections were immersed in artificial cerebrospinal fluid in which β-amyloid protein (Aβ1-42: produced by the Sigma Chemical Co.) and compound from Production Examples 1 or 12 had been dissolved, and pretreatment carried out for 5 hours.
In the measurement using the compound from Production Example 1, the concentration of the Aβ1-42 in the artificial cerebrospinal fluid was 500 nM and the concentration of the compound from Production Example 1 was 1 μg/mL. In the measurement using the compound from Production Example 12, the concentration of the Aβ1-42 in the artificial cerebrospinal fluid was 1 μM and the concentration of the compound from Production Example 12 was 3 μg/mL. Now, the Aβ1-42 was used after coagulation of the amyloid by leaving overnight.
100 pulses of high frequency stimulation at 100 Hz were applied to the pretreated acute sections, and the field excitatory postsynaptic potential: fEPSP) measured by an extracellular recording method.
The fEPSP was measured at 30 second intervals following application of the high frequency stimulation and the fEPSP slope (units [%]) measured. The average values of the slope over 0-20 minutes, 20-40 minutes and 40-60 minutes were determined. This test was repeated five times over. In the table, the figures are the average values ±standard deviation for the five averages obtained in the five tests. […] “Aβ” denotes the Aβ1-42.
As controls, measurements were made of the fEPSP [mV] under the same conditions for acute sections pretreated with the artificial cerebrospinal fluid alone, acute sections pretreated with the artificial cerebrospinal fluid in which Aβ1-42 had been dissolved, and acute sections pretreated with artificial cerebrospinal fluid in which only the compound from Production Example 1 or 12 had been dissolved, and then the average value of the fEPSP slope [%] obtained.

Aβ1-42 = Aβ1-42 (Homo sapiens, UniProt P05067); test: Aβ fibril-formation inhibiting action, thioflavin binding assay; format: biochemical; conditions: for activity at 100 µg/mL: Aβ1-42 25 μM + compound 100 μg/mL, incubation 2 days at 37° C., Aβ1-42 alone taken as 100, read-out: fibril-formation inhibiting action (fluorescent intensity %); for Aβ fibril-formation (result in words): compound added prior to fibril formation, thioflavin fluorescence
Aβ1-42, sequence (P05067 672-713): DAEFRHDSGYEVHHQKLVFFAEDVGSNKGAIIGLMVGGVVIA
Experimental: (§1) The Aβ fibril-formation inhibiting action and fibrillar Aβ breakdown action were evaluated using the thioflavin binding assay method. The details of the test method are based on the method described in J. Biol. Chem. Vol. 274, 25945-25952 (1999).
In the measurement of the inhibition of Aβ fibril-formation, the concentration of the Aβ1-42 was 25 μM and the concentration of the compound synthesized in Production Example 4 or Production Example 12 was 100 μg/mL in each case. The measurement of the Aβ fibril-formation inhibiting action was carried out following incubation for 2 days at 37° C. of the Aβ1-42 alone and of the Aβ1-42 to which the compound synthesized in Production Example 4 or Production Example 12 had been added.
(§2) The measurements of the Aβ fibril-formation inhibiting action and of the fibrillar Aβ breakdown action were carried out by placing a 100 μL sample obtained by pretreatment as described above, plus 800 μL of distilled water, 1 mL of glycine (100 mM) and 50 μL of thioflavin (100 μM) in a cuvette, and measuring the fluorescence at an excitation wavelength of 435 nm and a fluorescence wavelength of 490 nm.
(§3) The figures in the table show the calculated percentages taking the fluorescent intensity obtained when the fluorescence of the sample obtained by incubating Aβ1-42 (25 μM) alone by the above method, and measured at an excitation wavelength of 435 nm and a fluorescence wavelength of 490 nm, was taken as 100. The figures are in the form of the average value ±standard deviation, for the three to nine averages obtained in three to nine tests. […] “Aβ” is for the Aβ1-42.

fibrillar Aβ1-42 = fibrillar Aβ1-42 (Homo sapiens, UniProt P05067); test: Fibrillar Aβ breakdown action, thioflavin binding assay; format: biochemical; conditions: for fibrillar breakdown action (fluorescent intensity %): Aβ1-42 25 μM incubated 2 or 3 days at 37° C., then compound 100 μg/mL, further 2 days, Aβ1-42 alone taken as 100; for fibrillar Aβ breakdown action (result in words): compound added after fibril formation, thioflavin fluorescence
fibrillar Aβ1-42, sequence (P05067 672-713): as above
Experimental: as §1
In the measurement of the fibrillar Aβ breakdown action, the concentration of the Aβ1-42 was 25 μM and the concentration of the compound synthesized in Production Example 4 or Production Example 12 was 100 μg/mL in each case. After incubating the Aβ1-42 for 2 days or 3 days at 37° C., the compound synthesized in Production Example 4 or Production Example 12 was or was not added, and then further incubation performed for 2 days, after which measurement of the fibrillar Aβ breakdown action was performed.
as §2, §3

[2] = Table 8, Aβ (1 μM) + compound 1 μg/mL
[3] = Table 8, compound alone 1 μg/mL, no Aβ
[4] = Homo sapiens, HeLa cells, Aβ1-40 (100 nM), read-out: IC50 (action in inhibiting the lowering of the MTT reduction capacity by Aβ1-40)
[5] = Test 1, Aβ1-42 (500 nM) + compound 1 μg/mL
[6] = Test 1, compound alone 1 μg/mL, no Aβ
[7] = Test 2, Aβ1-42 (1 μM) + compound 3 μg/mL
[8] = Test 2, compound alone 3 μg/mL, no Aβ

SMILES: CC1(C)CC(C)(c2ccc(O)cc2O)c2ccc(O)cc2O1 (centres unmarked) [Compound A, 4-(7-hydroxy-2,4,4-trimethyl-chroman-4-yl)benzene-1,3-diol, reference compound]
- IC50 (HeLa cells; same method as Table 6, HeLa cells, Aβ1-40, read-out: 50% inhibitory concentration (IC50), action in suppressing the lowering of MTT function): 12 µM
- Value of fEPSP Slope [%] 0-20 minutes [1, 2]: 159.5 ± 6.6%
- Value of fEPSP Slope [%] 20-40 minutes [1, 2]: 142.8 ± 5.4%
- Value of fEPSP Slope [%] 40-60 minutes [1, 2]: 137.3 ± 4.5%
- Value of fEPSP Slope [%] 0-20 minutes [1, 3]: 168.6 ± 13.0%
- Value of fEPSP Slope [%] 20-40 minutes [1, 3]: 146.6 ± 15.9%
- Value of fEPSP Slope [%] 40-60 minutes [1, 3]: 149.7 ± 16.1%

SMILES: CCc1nc(Nc2cccc(O)c2)nc(Nc2cccc(O)c2)n1 [Production Example 1, 6-Ethyl-N,N′-bis(3-hydroxyphenyl)-1,3,5-triazine-2,4-diamine]
- IC50 (HeLa cells; [4]): 3.5 µM
- Value of fEPSP Slope [%] 0-20 minutes [1, 5]: 150.0 ± 8.4%
- Value of fEPSP Slope [%] 20-40 minutes [1, 5]: 149.6 ± 6.9%
- Value of fEPSP Slope [%] 40-60 minutes [1, 5]: 151.2 ± 7.5%
- Value of fEPSP Slope [%] 0-20 minutes [1, 6]: 155.3 ± 3.4%
- Value of fEPSP Slope [%] 20-40 minutes [1, 6]: 156.5 ± 3.9%
- Value of fEPSP Slope [%] 40-60 minutes [1, 6]: 155.8 ± 5.0%
- effect of compound on its own on LTP (result in words) ([1]; no Aβ): inactive on its own
- impairment of the LTP due to Aβ1-42 (result in words) [1]: suppressed

SMILES: CCCCc1nc(Nc2cccc(O)c2)cc(Nc2cccc(O)c2)n1 [Production Example 8, 2-Butyl-N,N′-bis(3-hydroxyphenyl)pyrimidine-4,6-diamine]
- IC50 (HeLa cells; [4]): 5.5 µM

SMILES: CCCc1nc(Nc2cccc(O)c2)nc(Nc2cccc(O)c2)n1 [Production Example 10, N,N′-bis(3-hydroxyphenyl)-6-propyl-1,3,5-triazine-2,4-diamine]
- IC50 (HeLa cells; [4]): 4.2 µM

SMILES: O=[N+]([O-])c1c(Nc2cccc(O)c2)ncnc1Nc1cccc(O)c1 [Production Example 18, N,N′-bis(3-hydroxyphenyl)-5-nitropyrimidine-4,6-diamine]
- IC50 (HeLa cells; [4]): 3.8 µM

SMILES: Cc1nc(Nc2cccc(O)c2)nc(Nc2cccc(O)c2)n1 [Production Example 27, N,N′-bis(3-hydroxyphenyl)-6-methyl-1,3,5-triazine-2,4-diamine]
- IC50 (HeLa cells; [4]): 2.4 µM

SMILES: CC(C)(C)c1nc(Nc2cccc(O)c2)nc(Nc2cccc(O)c2)n1 [Production Example 33, 6-t-Butyl-N,N′-bis(3-hydroxyphenyl)-1,3,5-triazine-2,4-diamine]
- IC50 (HeLa cells; [4]): 2.2 µM

SMILES: CCC(C)c1nc(Nc2cccc(O)c2)nc(Nc2cccc(O)c2)n1 (centres unmarked) [Production Example 34, 6-s-Butyl-N,N′-bis(3-hydroxyphenyl)-1,3,5-triazine-2,4-diamine]
- IC50 (HeLa cells; [4]): 4.1 µM

Second part, led by results:

- IC50 (HeLa cells; [4]): 1.9 µM
SMILES: CCc1nc(Nc2cccc(O)c2)cc(Nc2cccc(O)c2)n1 [Production Example 2, 2-Ethyl-N,N′-bis(3-hydroxyphenyl)pyrimidine-4,6-diamine]

- activity at 100 µg/mL (Aβ1-42): 16.3 ± 5.3%
- Aβ fibril-formation (result in words) (Aβ1-42): Aβ fibril-formation was inhibited
- fibrillar breakdown action (fluorescent intensity %) (fibrillar Aβ1-42): 30.63 ± 1.26%
- IC50 (HeLa cells; [4]): 6 µM
SMILES: Cc1nc(Nc2cccc(O)c2)cc(Nc2cccc(O)c2)n1 [Production Example 4, 2-Methyl-N,N′-bis(3-hydroxyphenyl)pyrimidine-4,6-diamine]
- fibrillar Aβ breakdown action (result in words) (fibrillar Aβ1-42): there was a fibrillar Aβ breakdown action

- IC50 (HeLa cells; [4]): 9.6 µM
SMILES: Oc1cccc(Nc2cc(Nc3cccc(O)c3)ncn2)c1 [Production Example 5, N,N′-bis(3-hydroxyphenyl)pyrimidine-4,6-diamine]

- IC50 (HeLa cells; [4]): 6.7 µM
SMILES: Oc1cccc(Nc2ccnc(Nc3cccc(O)c3)n2)c1 [Production Example 6, N,N′-bis(3-hydroxyphenyl)pyrimidine-2,4-diamine]

- IC50 (HeLa cells; [4]): 2.4 µM
SMILES: CCCc1nc(Nc2cccc(O)c2)cc(Nc2cccc(O)c2)n1 [Production Example 9, 2-Propyl-N,N′-bis(3-hydroxyphenyl)pyrimidine-4,6-diamine]

- activity at 100 µg/mL (Aβ1-42): 1.69 ± 1.32%
- Aβ fibril-formation (result in words) (Aβ1-42): Aβ fibril-formation was inhibited
- fibrillar breakdown action (fluorescent intensity %) (fibrillar Aβ1-42): 28.49 ± 5.17%
SMILES: Oc1cccc(Nc2ccc(Nc3cccc(O)c3)nn2)c1 [Production Example 12, N,N′-bis(3-hydroxyphenyl)pyridazine-3,6-diamine]
- fibrillar Aβ breakdown action (result in words) (fibrillar Aβ1-42): there was a fibrillar Aβ breakdown action
- Value of fEPSP Slope [%] 0-20 minutes [1, 7]: 161.7 ± 2.6%
- Value of fEPSP Slope [%] 20-40 minutes [1, 7]: 148.1 ± 3.1%
- Value of fEPSP Slope [%] 40-60 minutes [1, 7]: 146.2 ± 4.6%
- Value of fEPSP Slope [%] 0-20 minutes [1, 8]: 175.3 ± 7.4%
- Value of fEPSP Slope [%] 20-40 minutes [1, 8]: 162.9 ± 9.8%
- Value of fEPSP Slope [%] 40-60 minutes [1, 8]: 160.8 ± 10.3%
- effect of compound on its own on LTP (result in words) ([1]; no Aβ): inactive on its own
- impairment of the LTP due to Aβ1-42 (result in words) [1]: suppressed

- IC50 (HeLa cells; [4]): 5.5 µM
SMILES: Nc1nc(Nc2cccc(O)c2)cc(Nc2cccc(O)c2)n1 [Production Example 13, 2-Amino-N,N′-bis(3-hydroxyphenyl)pyrimidine-4,6-diamine]

Source: patent publication US8003645B2, “Preventives or remedies for Alzheimer's disease, or amyloid protein fibril-formation inhibitors, which include a nitrogen-containing heteroaryl compound” (BTG International Ltd., priority 2001, dated 2011)
